Reference: patent US20040009602A1, “DNA modifying molecules and methods of use thereof” (The Government of the U.S.A. as represented by the …, priority 2002, published 2004)

Tested on: HPRT gene
Test: Hprt mutation assay in synchronized CHO cells
Format: cell-based, Chinese Hamster
Procedure: Synchronization protocol: Chinese Hamster Ovary (CHO) AA8 cells (ATCC) were prepared as described above for the HPRT knockout assay. The cells were synchronized in G0/G1 by a variation of the method described by Sawai et al. (96). Briefly, cells were plated at subconfluent levels and the next day the medium changed to DMEM with 2% FBS and 2% DMSO. After 48 h the cells were washed (˜85% G0/G1 cells by FACS analysis) and either electroporated or fed with complete medium (for G1 phase experiments), or incubated with complete medium containing 100 μM mimosine for 16 hrs to block them in early S phase (˜90% early S cells). See Orren et al. for complete details on this procedure (49). After 16 hrs the cells were released from the mimosine block by feeding with DMEM/10% FBS. TFO electroporation, Psoralen treatment, and Hprt mutation assay: Cells were suspended at 10^7/mL and mixed with TFO at 5 μM. The cells were electroporated (BioRad), followed by incubation at room temperature for 3 hrs, and a 3 min exposure in a Rayonet chamber to UVA light at 1.8 J/cm^2. […] Cells treated with free psoralen were incubated with 5 μM psoralen for 30 min, followed by UVA treatment. The cells were passaged and then exposed to thioguanine (TG) selection (43).

## O=c1ccc2cc3ccoc3cc2o1 [psoralen]
5 μM free psoralen 30 min, UVA, different phases of cell cycle, background 0.001%
  frequency of thioguanine resistant colonies: 0.004-0.005%
Free psoralen/UVA
  cell cycle variability of mutation frequency: essentially unchanged across the cell cycle
